For three compounds, EC50 and Activity results are on record in ChEMBL document CHEMBL4699514, “Glucose Uptake-Stimulating Galloyl Ester Triterpenoids from Castanopsis sieboldii” (2020).

One experiment relates to 3T3-L1. Put plainly: Induction of glucose uptake in mouse 3T3-L1 adipocytes assessed as [3H]2-deoxy-D-glucose uptake incubated for 1 hr followed by [3H]2-deoxy-D-glucose addition by fluorescence microscopic method. Type of experiment: functional. Conditions: read-out: ED50 (the source's name).
In the next experiment the test system is C2C12. Put plainly: Activation of AMPK pathway in mouse C2C12 cells assessed as increase in AMPK phosphorylation at 10 to 20 uM after 60 mins by Western blot analysis. Type of experiment: cell-based. Conditions: filed as activator, dose microM 10-20, time 60.0 min.

Activity calls are given as the source filed them. No cut-off for these calls is given here.

Take `CC1(C)CC[C@]2(C(=O)O[C@@H]3O[C@H](CO)[C@@H](O)[C@H](O)[C@H]3O)CC[C@]3(C)C(=CC[C@@H]4[C@@]5(C)C[C@@H](O)[C@H](OC(=O)c6cc(O)c(O)c(O)c6)[C@](CO)(COC(=O)c6cc(O)c(O)c(O)c6)[C@@H]5CC[C@]43C)[C@@H]2C1`: in the experiment on 3T3-L1, the EC50 worked out at 12.1 µM. In the experiment on C2C12, the outcome was Active. `CC1(C)CC[C@]2(C(=O)O)CC[C@]3(C)C(=CC[C@@H]4[C@@]5(C)C[C@@H](O)[C@H](O)C(CO)(CO)[C@@H]5CC[C@]43C)[C@@H]2C1`: the EC50 in the experiment with 3T3-L1 amounted to 6.89 µM. On the same count and under the same terms, with `CC1(C)CC[C@]2(C(=O)O[C@@H]3O[C@H](CO)[C@@H](O)[C@H](O)[C@H]3O)CC[C@]3(C)C(=CC[C@@H]4[C@@]5(C)C[C@@H](O)[C@H](OC(=O)c6cc(O)c(O)c(O)c6)C6(COC(=O)c7cc(O)c(O)c(O)c7-c7c(cc(O)c(O)c7O)C(=O)OC6)[C@@H]5CC[C@]43C)[C@@H]2C1` the figure was 10.6 µM.
